The values below come from ChEMBL document CHEMBL5506018, “Discovery and Mechanistic Studies of Dual-Target Hits for Carbonic Anhydrase IX and VEGFR-2 as Potential Agents for Solid Tumors: X-ray, In Vitro, In Vivo, and In Silico Investigations of Coumarin-Based Thiazoles” (J Med Chem, 2024).

Where only a bound is given, the exact number is not on record here.

Data set [1] concerns the target T1, Carbonic anhydrase 1 (Homo sapiens, UniProt P00915).
Description: Inhibition of human CA1 preincubated for 6 hrs by phenol red staining based stopped flow CO2 hydrase assay
In data set [2] the target is T2, Vascular endothelial growth factor receptor 2 (Homo sapiens, UniProt P35968). The experiment in a line: Inhibition of hypoxia induced VEGFR-2 (unknown origin).
T2 sequence (P35968 whole entry): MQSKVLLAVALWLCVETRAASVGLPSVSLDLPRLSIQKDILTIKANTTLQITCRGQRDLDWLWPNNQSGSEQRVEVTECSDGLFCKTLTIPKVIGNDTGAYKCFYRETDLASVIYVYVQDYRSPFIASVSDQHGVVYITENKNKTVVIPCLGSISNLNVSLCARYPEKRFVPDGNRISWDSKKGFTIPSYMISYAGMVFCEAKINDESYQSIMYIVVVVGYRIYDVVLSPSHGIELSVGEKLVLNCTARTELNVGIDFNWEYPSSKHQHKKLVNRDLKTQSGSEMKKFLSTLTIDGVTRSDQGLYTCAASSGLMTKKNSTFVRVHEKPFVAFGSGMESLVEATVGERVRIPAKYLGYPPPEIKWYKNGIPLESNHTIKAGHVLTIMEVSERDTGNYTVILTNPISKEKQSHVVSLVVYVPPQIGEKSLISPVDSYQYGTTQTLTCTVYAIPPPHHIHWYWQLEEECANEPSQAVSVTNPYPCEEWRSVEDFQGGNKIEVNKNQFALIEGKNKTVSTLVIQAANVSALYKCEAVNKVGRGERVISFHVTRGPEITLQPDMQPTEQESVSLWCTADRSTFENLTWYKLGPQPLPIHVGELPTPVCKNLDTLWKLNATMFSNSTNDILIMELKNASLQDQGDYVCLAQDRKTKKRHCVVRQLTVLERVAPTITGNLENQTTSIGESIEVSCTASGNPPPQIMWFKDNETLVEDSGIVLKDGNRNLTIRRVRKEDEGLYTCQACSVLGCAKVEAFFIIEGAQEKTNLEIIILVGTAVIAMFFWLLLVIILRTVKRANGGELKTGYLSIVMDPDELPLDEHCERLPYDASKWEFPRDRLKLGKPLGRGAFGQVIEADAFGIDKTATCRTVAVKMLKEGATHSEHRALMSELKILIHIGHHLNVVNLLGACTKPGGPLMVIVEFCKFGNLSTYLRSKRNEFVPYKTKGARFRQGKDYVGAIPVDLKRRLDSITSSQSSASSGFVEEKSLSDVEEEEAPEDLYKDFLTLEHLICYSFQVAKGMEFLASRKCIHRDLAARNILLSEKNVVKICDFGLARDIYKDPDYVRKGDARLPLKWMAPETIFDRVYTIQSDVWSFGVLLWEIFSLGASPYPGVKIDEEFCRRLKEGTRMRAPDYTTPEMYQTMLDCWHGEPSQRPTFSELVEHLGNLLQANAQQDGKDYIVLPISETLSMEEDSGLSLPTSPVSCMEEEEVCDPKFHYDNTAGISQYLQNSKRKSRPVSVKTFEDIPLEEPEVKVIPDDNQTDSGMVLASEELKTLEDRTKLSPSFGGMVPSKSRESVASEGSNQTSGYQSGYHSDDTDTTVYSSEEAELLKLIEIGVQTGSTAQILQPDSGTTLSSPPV
In data set [3] the target is T2, Vascular endothelial growth factor receptor 2. Put plainly: Inhibition of VEGFR-2 (unknown origin).
In data set [4] the target is T1, Carbonic anhydrase 1. Put plainly: Inhibition of human CA1 by stopped flow CO2 hydrase assay.
A short description of data set [5]: Cytotoxicity against African green monkey Vero cells under hypoxic condition by MTT assay. The settings on record: African green monkey (Chlorocebus sabaeus).
For data set [6], the system named is Ehrlich. To be noted: dose 5 mg/kg; route ip; time 14 day.
Description: Antitumor activity against mouse EAC cells implanted in Swiss albino mouse assessed as T/C ratio at 5 mg/kg, ip measured on day 5, 10 and 14
Data set [7] has as its system PANC-1. Put plainly: Cytotoxicity against human PANC-1 cells under hypoxia condition by MTT assay. In kind it is functional, cell-based. A general note: Tetrazolium dyes change colour on reduction, which living cells bring about.
The subject of data set [8] is Ehrlich. The experiment in a line: animal or person. The settings on record: Mus musculus, 336 h, read-out: GI.

T1 sequence (P00915 whole entry): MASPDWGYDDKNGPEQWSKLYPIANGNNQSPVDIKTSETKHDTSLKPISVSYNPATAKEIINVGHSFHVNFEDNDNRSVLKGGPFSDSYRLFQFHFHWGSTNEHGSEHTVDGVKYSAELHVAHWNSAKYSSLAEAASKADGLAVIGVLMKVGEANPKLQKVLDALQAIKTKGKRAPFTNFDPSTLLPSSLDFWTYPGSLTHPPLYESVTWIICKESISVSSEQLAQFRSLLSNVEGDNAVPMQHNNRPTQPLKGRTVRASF

What is called Ki is a measure of affinity in units of concentration, obtained from inhibition or displacement. One may read the IC50 as the concentration needed to halve the response being measured. As to `CCOc1cccc2cc(/C(C)=N/Nc3nc(-c4ccc(F)cc4)cs3)c(=O)oc12`, the inhibition constant Ki in data set [1] is > 100 µM. For the same compound, half-maximal inhibition in data set [2] (IC50) required 0.0321 µM. As to `CCOc1cccc2cc(/C(C)=N/Nc3nc(-c4ccc([N+](=O)[O-])cc4)cs3)c(=O)oc12`, the inhibitory constant (Ki) in data set [1] is > 100 µM. Consider `CCOc1cccc2cc(/C(C)=N/Nc3nc(-c4ccccc4)cs3)c(=O)oc12`, for which the inhibition constant (Ki) in data set [1] is > 100 µM. Further, the IC50 in data set [2] came to 0.0686 µM. In the case of `O=C(CN1C(=O)S/C(=C\c2cccs2)C1=O)c1cc2ccccc2oc1=O`, the Ki in data set [1] is > 100 µM. Regarding `CCOc1cccc2cc(/C(C)=N/Nc3nc(-c4ccc(C)cc4)cs3)c(=O)oc12`, in data set [1], the Ki is > 100 µM. Still for that read-out and setting: the same measure for `CCOc1cccc2cc(/C(C)=N/Nc3nc(-c4cc5cc(Br)ccc5oc4=O)cs3)c(=O)oc12`: > 100 µM.

Consider `C/C(=N\NC(=S)Nc1ccc(Br)cc1)c1cc2ccccc2oc1=O`, for which the IC50 in data set [3] was 0.082 µM.

In data set [4], `Cc1nc(-c2cc3ccccc3oc2=O)ccc1C(=O)/C=C/c1cccs1` showed a Ki of 1.1 µM.

Consider `CCOc1cccc2cc(/C(C)=N/Nc3nc(-c4ccc(Br)cc4)cs3)c(=O)oc12`, for which the inhibition constant Ki in data set [1] was > 100 µM. As for `CCOc1cccc2cc(/C(C)=N/Nc3nc(-c4cc5ccc(OC)cc5oc4=O)cs3)c(=O)oc12`, the Ki in data set [1] is > 100 µM.

On to `COc1cccc2c1C(=O)c1c(O)c3c(c(O)c1C2=O)C[C@@](O)(C(=O)CO)C[C@@H]3O[C@H]1C[C@H](N)[C@H](O)[C@H](C)O1` [DOXORUBICIN], for which the IC50 in data set [5] is 8.7 µM; in data set [7], 6.9 µM. The compound also showed a T/C in data set [6] of 40.89. For the same compound, the inhibition in vivo at 5 mg/kg in data set [8] is 67%. For `CCOc1cccc2cc(/C(C)=N/Nc3nc(-c4ccc(OC)cc4)cs3)c(=O)oc12`, the Ki in data set [1] is > 100 µM. For the same compound, the IC50 in data set [2] came out at 0.0348 µM. As for `CCOc1cccc2cc(/C(C)=N/Nc3nc(-c4ccc(Cl)cc4)cs3)c(=O)oc12`, in data set [1], the Ki is > 100 µM. For the compound `CCOc1cccc2cc(/C(C)=N/Nc3nc(-c4cc5cccc(OCC)c5oc4=O)cs3)c(=O)oc12`, the Ki in data set [1] is > 100 µM.
